Laboratory results: patent publication US5795756A, “Method and compounds for the inhibition of adenylyl cyclase” (priority 1996, dated 1998)
Read-outs that look alike come from different tables or passages of the source.

What was measured:
[1] = target: rat brain adenylyl cyclase; assay: Inhibition of detergent-dispersed rat brain adenylyl cyclase (Table I); type: biochemical; settings: for inhibition of adenylyl cyclase activity compared with adenosine: in words, relative to adenosine
Experimental: Detergent-dispersed adenylyl cyclase from rat brain was prepared as previously described^58. Activities were determined in a reaction mixture containing 50 mM N-[2-hydroxyethyl]-piperazine-N'-[2-ethanesulfonic acid] (HEPES) or 50 mM triethanolamine.cndot.HCl, pH 7.5, 5 mM MnCl2, 100 μM 5'ATP, [α-^32 p]5'ATP (ca. 2 to 5×10^5 dpm), 0.1% (w/v) Lubrol-PX, 1 mM 3-isobutyl-1-methyl-xanthine, 1 mM dithiothreitol, 1 mg bovine serum albumin per ml, 2 mM creatine phosphate, 100 μg creatine kinase per ml, and 100 μM forskolin, in a reaction volume of 100 μl. Reactions were for 15 min at 30° C. and were terminated by the addition of 0.6 ml 120 mM zinc acetate containing 0.5 mM cAMP and 0.5 ml 144 mM sodium carbonate as described by Jakobs et al.^59.
The resulting ZnCO3 precipitate was sedimented by centrifugation in a desktop microfuge. The [^32 P] cAMP in the supernatant fraction was then purified free of residual substrate and other contaminants by sequential chromatography on Dowex-50 and Al2 O3, as described by Salomon et al.^60. [^32 P]cAMP was quantified by Cherenkov radiation in a liquid scintillation spectrometer.
The synthesized adenine derivatives, 1-5, 8, 11-13, 16, 19-21, 34 and 35 were each tested separately in vitro for their ability to inhibit adenylyl cyclase activity by administration of each compound to the above-describedadenylyl cyclase assay.

[2] = target: adenylyl cyclase, Type I, purified recombinant (Bos taurus, UniProt P19754); assay: Inhibition of purified recombinant Type I adenylyl cyclase (Table II); type: biochemical; settings: forskolin eluate
Sequence of adenylyl cyclase, Type I, purified recombinant (P19754 whole entry): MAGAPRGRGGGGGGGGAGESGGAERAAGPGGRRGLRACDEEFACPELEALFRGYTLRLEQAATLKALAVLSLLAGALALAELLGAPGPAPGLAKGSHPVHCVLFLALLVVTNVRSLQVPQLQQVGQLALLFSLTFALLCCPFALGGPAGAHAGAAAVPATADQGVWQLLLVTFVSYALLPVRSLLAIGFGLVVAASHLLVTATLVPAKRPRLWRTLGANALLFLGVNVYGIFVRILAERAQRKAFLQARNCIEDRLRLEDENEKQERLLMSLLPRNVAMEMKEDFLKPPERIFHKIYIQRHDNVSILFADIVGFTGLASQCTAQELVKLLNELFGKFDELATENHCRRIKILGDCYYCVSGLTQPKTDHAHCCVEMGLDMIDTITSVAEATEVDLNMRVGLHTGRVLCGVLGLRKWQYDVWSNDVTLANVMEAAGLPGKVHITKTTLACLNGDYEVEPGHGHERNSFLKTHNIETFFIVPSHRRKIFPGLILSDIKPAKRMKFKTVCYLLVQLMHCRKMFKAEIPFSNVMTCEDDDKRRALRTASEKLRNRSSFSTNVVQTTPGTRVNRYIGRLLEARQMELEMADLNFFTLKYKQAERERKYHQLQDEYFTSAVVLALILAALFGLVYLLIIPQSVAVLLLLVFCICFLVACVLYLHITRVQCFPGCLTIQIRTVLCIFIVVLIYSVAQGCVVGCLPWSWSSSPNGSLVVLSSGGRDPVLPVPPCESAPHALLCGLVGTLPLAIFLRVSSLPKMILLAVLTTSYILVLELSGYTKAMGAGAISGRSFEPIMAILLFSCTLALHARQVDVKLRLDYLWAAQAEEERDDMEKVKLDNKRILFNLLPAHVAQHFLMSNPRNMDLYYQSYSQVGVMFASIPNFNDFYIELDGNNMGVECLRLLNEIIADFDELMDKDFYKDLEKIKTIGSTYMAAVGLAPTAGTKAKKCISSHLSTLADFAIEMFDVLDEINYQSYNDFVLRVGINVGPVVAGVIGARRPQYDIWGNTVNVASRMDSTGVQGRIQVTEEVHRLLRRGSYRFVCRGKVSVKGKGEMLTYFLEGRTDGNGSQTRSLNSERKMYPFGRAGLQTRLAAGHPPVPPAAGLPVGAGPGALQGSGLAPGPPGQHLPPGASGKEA

[3] = target: rat brain adenylyl cyclase; settings: Table I, footnote a: values from Johnson et al. 1989; read-out: IC50 for inhibition of rat brain adenylyl cyclase; cited from earlier work
[4] = tested on: intestinal epithelium; settings: cited from earlier work
[5] = tested on: adenylyl cyclases; settings: related art, cited from earlier work; for inhibition of adenylyl cyclases via P-site: in words; for IC50: read-out: IC50 for inhibition of adenylyl cyclases
[6] = target: adenylyl cyclase, bovine brain, purified; assay: Inhibition of purified bovine brain adenylyl cyclase (Table II); type: biochemical; settings: forskolin eluates from forskolin affinity column
[7] = tested on: adenylyl cyclase; assay: Inhibition of adenylyl cyclase in intact cells and tissues; type: cell-based; settings: cell permeable variants
[8] = Table I, 5 mM MnCl2, 100 μM 5'ATP, 100 μM forskolin, pH 7.5, 15 min at 30° C., read-out: IC50 for inhibition of rat brain adenylyl cyclase
[9] = Table II, rat brain, detergent extract, values from Table I, read-out: IC50, rat brain detergent extract
[10] = modified or replaced ribosyl moiety

SMILES: C[C@H]1O[C@@H](n2cnc3c(N)ncnc32)C[C@@H]1OP(=O)(O)O [2'5'dd3'AMP]
- IC50 [1, 8]: 460 nM
- IC50 [1, 9]: 460 nM
- IC50 [2]: 1990 nM

SMILES: C[C@H]1O[C@@H](n2cnc3c(N)ncnc32)C[C@@H]1O [2',5'-dideoxyadenosine]
- IC50 [3]: 2700 nM
- counteracting effects of cholera intoxication [4]: used to counteract the effects of cholera intoxication in intestinal epithelium

SMILES: Nc1ncnc2c1ncn2[C@H]1C[C@H](O)[C@@H](CO)O1 [2'-deoxyadenosine]
- IC50 [3]: 15000 nM

SMILES: Nc1ncnc2c1ncn2[C@H]1C[C@H](OP(=O)(O)O)[C@@H](CO)O1 [2'd3'AMP]
- IC50 [3]: 1200 nM

SMILES: Nc1nc(F)nc2c1ncn2[C@H]1C[C@H](O)[C@@H](CO)O1 [2-fluoro-2'-deoxyadenosine]
- inhibition of adenylyl cyclases via P-site [5]: inhibitory

SMILES: Nc1nc(F)nc2c1ncn2[C@@H]1O[C@H](CO)[C@@H](O)[C@H]1O [2-fluoroadenosine]
- inhibition of adenylyl cyclases via P-site [5]: inhibitory

SMILES: C[C@H]1O[C@@H](n2cnc3c(N)ncnc32)C[C@@H]1OC(=O)c1ccc(S(=O)(=O)F)cc1 [3'-(4-fluorosulfonylbenzoyl) -2', 5'-dideoxyadenosine]
- inhibition of adenylyl cyclases via P-site [5]: inhibitory effectiveness

SMILES: C[C@H]1O[C@@H](n2cnc3c(N)ncnc32)C[C@@H]1OC(=O)CCC(=O)O [3'-succinyl-2', 5'-dideoxyadenosine]
- inhibition of adenylyl cyclases via P-site [5]: inhibitory effectiveness

SMILES: Nc1ncnc2c1ncn2[C@@H]1O[C@H](CO)[C@@H](OP(=O)(O)O)[C@H]1O [3'AMP]
- IC50 [1, 8]: 8900 nM

SMILES: Nc1ncnc2c1ncn2C1CCCO1 (centres unmarked) [9-(tetrahydro-2-furyl)-adenine]
- IC50 [5, 10]: ~10000 nM

SMILES: CC1CCC(n2cnc3c(N)ncnc32)O1 (centres unmarked) [9-(tetrahydro-5-methyl-2-furyl)-adenine]
- IC50 [5, 10]: ~8000 nM

SMILES: Nc1ncnc2c1ncn2C1CCCC1 [9-cyclopentyl-adenine]
- IC50 [5, 10]: ~20000 nM

SMILES: Nc1ncnc2c1ncn2Cc1ccco1 [9-furfuryl-adenine]
- IC50 ([5]; unit printed kM): ~26000 nM

SMILES: Nc1ncnc2c1ncn2[C@@H]1O[C@H](CO)[C@@H](O)[C@@H]1O [9-β-D-arabinofuranosyl-adenine]
- IC50 [5, 10]: ~100000 nM

SMILES: Nc1ncnc2c1ncn2[C@@H]1O[C@H](CO)[C@H](O)[C@H]1O [9-β-D-xylofuranosyl-adenine]
- IC50 [5, 10]: ~25000 nM

SMILES: C[C@H]1O[C@@H](n2cnc3c(N)ncnc32)C[C@@H]1OP(=O)(O)OCCN(C)S(=O)(=O)c1cccc2c(N(C)C)cccc12 [Compound 1, 2', 5'-dideoxyadenosine-3'-[2-([(5-dimethylamino-1-naphthalenesulfonamido) -(N-methyl)]-aminoethyl)-phosphate]]
- IC50 [1, 8]: 3000 nM
- inhibition of adenylyl cyclase activity compared with adenosine [1]: inhibited adenylyl cyclase activity at concentrations considerably lower than that for adenosine

SMILES: CC(C)CCC[C@@H](C)[C@H]1CC[C@H]2[C@@H]3CC=C4C[C@@H](OP(=O)(O)O[C@H]5C[C@H](n6cnc7c(N)ncnc76)O[C@@H]5C)CC[C@]4(C)[C@H]3CC[C@]12C [Compound 2, 2', 5'dideoxyadenosine-3'-[(3-cholesteryl)-phosphate]]
- IC50 [1, 8]: > 300000 nM
- inhibition of adenylyl cyclase activity compared with adenosine [1]: less effective than adenosine in the inhibition of adenylyl cyclase activity

SMILES: C[C@H]1O[C@@H](n2cnc3c(N)ncnc32)C[C@@H]1OP(=O)(O)OP(=O)(O)O [Compound 3, 2', 5'-dideoxyadenosine-3'-diphosphate]
- IC50 [1, 8]: 100 nM
- IC50 [1, 9]: 100 nM
- IC50 [6]: 560 nM
- IC50 [2]: 250 nM

SMILES: C[C@H]1O[C@@H](n2cnc3c(N)ncnc32)C[C@@H]1OP(=O)(O)OP(=O)(O)OP(=O)(O)O [Compound 4, 2', 5'-dideoxyadenosine-3'-triphosphate]
- IC50 [1, 8]: 40 nM
- IC50 [1, 9]: 40 nM
- IC50 [6]: 120 nM
- IC50 [2]: 170 nM

SMILES: C[C@H]1O[C@@H](n2cnc3c(N)ncnc32)C[C@@H]1OP(=O)(O)OP(=O)(O)OP(=O)(O)OP(=O)(O)O [Compound 5, 2', 5'-dideoxyadenosine-3'-tetraphosphate]
- IC50 [1, 8]: 10 nM

SMILES: C[C@H]1O[C@@H](n2cnc3c(N)ncnc32)C[C@@H]1OP(O)(O)=S [Compound 8, 2', 5'-dideoxyadenosine-3'-O-thiophosphate]
- inhibition of adenylyl cyclase activity compared with adenosine [1]: inhibited adenylyl cyclase activity at concentrations considerably lower than that for adenosine

SMILES: Nc1ncnc2c1ncn2[C@H]1C[C@H](OP(=O)(O)OP(=O)(O)O)[C@@H](CO)O1 [Compound 11, 2'-deoxyadenosine-3'-diphosphate]
- IC50 [1, 8]: 140 nM

SMILES: Nc1ncnc2c1ncn2[C@H]1C[C@H](OP(=O)(O)OP(=O)(O)OP(=O)(O)O)[C@@H](CO)O1 [Compound 12, 2'-deoxyadenosine-3'-triphosphate]
- IC50 [1, 8]: 90 nM

SMILES: Nc1ncnc2c1ncn2[C@H]1C[C@H](OP(=O)(O)OP(=O)(O)OP(=O)(O)OP(=O)(O)O)[C@@H](CO)O1 [Compound 13, 2'-deoxyadenosine-3'-tetraphosphate]
- IC50 [1, 8]: 13 nM

SMILES: Nc1ncnc2c1ncn2[C@H]1C[C@H](OP(O)(O)=S)[C@@H](CO)O1 [Compound 16, 2'-deoxyadenosine-3'-O-thiophosphate]
- inhibition of adenylyl cyclase activity compared with adenosine [1]: inhibited adenylyl cyclase activity at concentrations considerably lower than that for adenosine

SMILES: Nc1nc(F)nc2c1ncn2C1CCCC1 [Compound 19, 9-cyclopentyl-2-fluoro-9H-adenine]
- inhibition of the enzyme in intact cells and tissues [7]: inhibit the enzyme in intact cells and tissues
- inhibition of adenylyl cyclase activity compared with adenosine [1]: inhibited adenylyl cyclase activity at concentrations considerably lower than that for adenosine

SMILES: Nc1ncnc2c1ncn2[C@@H]1O[C@H](CO)[C@@H](OP(=O)(O)OP(=O)(O)O)[C@H]1O [Compound 34, adenosine-3'-diphosphate]
- IC50 [1, 8]: 3900 nM

SMILES: Nc1ncnc2c1ncn2[C@@H]1O[C@H](CO)[C@@H](OP(=O)(O)OP(=O)(O)OP(=O)(O)O)[C@H]1O [Compound 35, adenosine-3'-triphosphate]
- IC50 [1, 8]: 2000 nM

SMILES: Nc1ncnc2c1ncn2[C@@H]1O[C@H](CO)[C@@H](O)[C@H]1O [adenosine]
- IC50 [3]: 82000 nM

SMILES: Nc1cc[nH]c(=O)n1 [cytosine]
- inhibition of adenylyl cyclases via P-site [5]: inactive

SMILES: Nc1ncnc2c1ncn2C[C@@H](O)[C@@H](O)C(=O)O [eritadenine]
- IC50 [5, 10]: 6000 to 12000 nM

SMILES: Nc1nc2c(ncn2[C@@H]2O[C@H](CO)[C@@H](O)[C@H]2O)c(=O)[nH]1 [guanosine]
- inhibition of adenylyl cyclases via P-site [5]: inactive

SMILES: OC[C@H]1O[C@@H](n2cnc3c(O)ncnc32)[C@H](O)[C@@H]1O [inosine]
- inhibition of adenylyl cyclases via P-site [5]: inactive

SMILES: Cc1cn([C@H]2C[C@H](O)[C@@H](CO)O2)c(=O)[nH]c1=O [thymidine]
- inhibition of adenylyl cyclases via P-site [5]: inactive

SMILES: O=c1ccn([C@@H]2O[C@H](CO)[C@@H](O)[C@H]2O)c(=O)[nH]1 [uridine]
- inhibition of adenylyl cyclases via P-site [5]: inactive
